Measurements published in US20240158446A1, “CYCLIC COMPOUND HAVING SELECTIVE INHIBITORY ACTION ON KRAS OVER HRAS AND NRAS” (CHUGAI SEIYAKU KABUSHIKI KAISHA, priority 2021, published 2024).
Where a SMILES comes first, the peptide text is derived from it. Bridges are numbered along the chain shown (N, C = ends). [ ]: non-standard residue; d: D form. The star is where a group is joined. hPhe(3-Cl-4-CF3) = N[C@@H](CCc1ccc(C(F)(F)F)c(Cl)c1)C(=O)O; NPrPhe(4-CF3) = CCCN[C@@H](Cc1ccc(C(F)(F)F)cc1)C(=O)O; NMeGly(cPent) = CN[C@H](C(=O)O)C1CCCC1; NMeD = CN[C@@H](CC(=O)O)C(=O)O; NMeL = CN[C@@H](CC(C)C)C(=O)O; Morpholide = C1CN(*)CCO1; Ac4c = NC1(C(=O)O)CCC1; NEtG = CCNCC(=O)O; Sar = CNCC(=O)O

Legend:
[1] = biological target: GDP-bound KRAS wild-type protein (Homo sapiens, UniProt P01116); assay: Binding to KRAS by surface plasmon resonance (SPR), Single Cycle Kinetics; details: SPR, Single Cycle Kinetics, GDP-bound KRAS wild-type protein; read-out: KRAS KD
[2] = biological target: GDP-bound HRAS wild-type protein (Homo sapiens, UniProt P01112); assay: Binding to HRAS by surface plasmon resonance (SPR), Single Cycle Kinetics; details: ratio of KD for GDP-bound HRAS wild-type protein to KD for KRAS, SPR
[3] = system: human lung cancer strain NCI-H441; assay: cells; details: NCI-H441, 96 h, read-out: NCI-H441 IC50 (nM), NCI-H441 cell proliferation, 4 days, CellTiter-Glo;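 also: cell proliferation inhibition after four days measured by CellTiter-Glo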
[4] = biological target: GDP-bound NRAS wild-type protein (Homo sapiens, UniProt P01111); assay: Binding to NRAS by surface plasmon resonance (SPR), Single Cycle Kinetics; details: ratio of KD for GDP-bound NRAS wild-type protein to KD for KRAS, SPR
GDP-bound NRAS wild-type protein, sequence (P01111 whole entry): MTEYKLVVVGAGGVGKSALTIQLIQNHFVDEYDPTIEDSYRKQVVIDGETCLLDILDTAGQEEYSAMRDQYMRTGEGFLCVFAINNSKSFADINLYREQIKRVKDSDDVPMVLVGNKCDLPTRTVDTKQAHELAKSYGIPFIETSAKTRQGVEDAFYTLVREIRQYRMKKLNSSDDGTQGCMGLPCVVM

GDP-bound HRAS wild-type protein, sequence (P01112 whole entry): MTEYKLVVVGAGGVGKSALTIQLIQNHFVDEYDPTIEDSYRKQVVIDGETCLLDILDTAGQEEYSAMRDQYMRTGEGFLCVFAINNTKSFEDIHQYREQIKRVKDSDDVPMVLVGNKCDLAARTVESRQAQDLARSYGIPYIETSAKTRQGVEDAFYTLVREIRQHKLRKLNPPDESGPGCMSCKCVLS
GDP-bound KRAS wild-type protein, sequence (P01116 whole entry): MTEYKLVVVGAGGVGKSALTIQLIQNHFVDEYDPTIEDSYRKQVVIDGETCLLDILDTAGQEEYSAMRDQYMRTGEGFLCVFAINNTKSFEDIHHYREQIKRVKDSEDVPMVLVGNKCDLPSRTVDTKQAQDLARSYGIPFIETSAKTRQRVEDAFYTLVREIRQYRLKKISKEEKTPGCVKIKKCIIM

Kd [1]	IC50 [3]	SMILES	HRAS/KRAS (KD ratio) [2]	NRAS/KRAS (KD ratio) [4]
0.051 nM	4.1 nM	CC[C@H](C)[C@@H]1NC(=O)[C@H](CC(C)C)N(C)C(=O)C[C@@H](C(=O)N(C)CC)N(C)C(=O)[C@H](C2CCCC2)N(C)C(=O)C2(CC(C)(C)C2)NC(=O)[C@@H]2C[C@@H](F)CN2C(=O)[C@H](CCc2cc(F)c(C(F)(F)F)c(F)c2)NC(=O)CN(C)C(=O)[C@H](Cc2ccc(C(F)(F)F)cc2)N2CC/C=C\C[C@@H](C2=O)N(C)C(=O)CN(C)C1=O [PP1694]	A (a compound having 10 or more and less than 20 is denoted as A)	A (a compound having 10 or more and less than 20 is denoted as A)
0.11 nM	3.8 nM	CCCN(C)C(=O)[C@@H]1CC(=O)N(C)[C@@H](CC(F)F)C(=O)N[C@@H]([C@@H](C)CC)C(=O)N(C)CC(=O)N(C)[C@H]2C/C=C\CCN(C2=O)[C@@H](Cc2ccc(C(F)(F)F)cc2)C(=O)N(C)CC(=O)N[C@@H](CCc2cc(F)c(C(F)(F)F)c(F)c2)C(=O)N2C[C@H](OCC)C[C@H]2C(=O)NC2(CC(F)(F)C2)C(=O)N(C)[C@@H](C2CCCC2)C(=O)N1C [PP1733]	A (a compound having 10 or more and less than 20 is denoted as A)	A (a compound having 10 or more and less than 20 is denoted as A)
0.087 nM	10.7 nM	CC[C@H](C)[C@@H]1NC(=O)[C@H](CC)N(C)C(=O)C[C@@H](C(=O)N(C)CC)N(C)C(=O)[C@H](C2CCCC2)N(C)C(=O)C2(CC(C)(C)C2)NC(=O)[C@@H]2C[C@H](C)CN2C(=O)[C@H](CCc2ccc(C(F)(F)F)c(OC)c2)NC(=O)CN(C)C(=O)[C@H](Cc2ccc(C)cc2)N2CC/C=C\C[C@@H](C2=O)N(C)C(=O)CN(C)C1=O [PP1868]	B (a compound having 3 or more and less than 10 is denoted as B)	A (a compound having 10 or more and less than 20 is denoted as A)
0.023 nM	1.4 nM	CCC[C@H]1C(=O)N[C@@H]([C@@H](C)CC)C(=O)N(C)CC(=O)N(C)[C@H]2C/C=C\CCN(C2=O)[C@@H](Cc2ccc(C(F)(F)F)cc2)C(=O)N(C)CC(=O)N[C@@H](CCc2cc(F)c(C(F)(F)F)c(F)c2)C(=O)N2C[C@H](F)C[C@H]2C(=O)NC2(CC(C)(C)C2)C(=O)N(C)[C@@H](C2CCCC2)C(=O)N(C)[C@H](C(=O)N(C)C)CC(=O)N1C [PP1689]	B (a compound having 3 or more and less than 10 is denoted as B)	A (a compound having 10 or more and less than 20 is denoted as A)
0.12 nM	22.6 nM	CC[C@H](C)[C@@H]1NC(=O)[C@H](C2CC2)N(C)C(=O)C[C@@H](C(=O)N(C)C)N(C)C(=O)[C@H](C2CCCC2)N(C)C(=O)C2(CCCC2)N(C)C(=O)[C@@H]2C[C@@H](C)CN2C(=O)[C@H](CCc2cc(F)c(C(F)(F)F)c(F)c2)NC(=O)CN(C)C(=O)[C@H](Cc2ccc(C)cc2)N2CC/C=C\C[C@@H](C2=O)N(C)C(=O)CN(C)C1=O [PP1813]	B (a compound having 3 or more and less than 10 is denoted as B)	A (a compound having 10 or more and less than 20 is denoted as A)
0.19 nM	4.5 nM	CCO[C@@H]1C[C@H]2C(=O)NC3(CC(C)(C)C3)C(=O)N(C)[C@@H](C3CCCC3)C(=O)N(C)[C@H](CC)CC(=O)N(C)[C@@H](CC)C(=O)N[C@@H]([C@@H](C)CC)C(=O)N(C)CC(=O)N(C)[C@H]3C/C=C\CCN(C3=O)[C@@H](Cc3ccc(C(F)(F)F)cc3)C(=O)N(C)CC(=O)N[C@@H](CCc3cc(F)c(C(F)(F)F)c(F)c3)C(=O)N2C1 [PP1623]	A (a compound having 10 or more and less than 20 is denoted as A)	A (a compound having 10 or more and less than 20 is denoted as A)
0.11 nM	1.4 nM	CC[C@H](C)[C@@H]1NC(=O)[C@H](CC)N(C)C(=O)C[C@@H](C(=O)N(C)C)N(C)C(=O)[C@H](C2CCCC2)N(C)C(=O)C2(CC(C)(C)C2)NC(=O)[C@@H]2C[C@H](C)CN2C(=O)[C@H](CCc2cc(F)c(C(F)(F)F)c(F)c2)NC(=O)CN(C)C(=O)[C@H](Cc2ccc(C)cc2)N2CC/C=C\C[C@@H](C2=O)N(C)C(=O)CN(C)C1=O [PP1856]	A (a compound having 10 or more and less than 20 is denoted as A)	A (a compound having 10 or more and less than 20 is denoted as A)
0.11 nM	2.7 nM	C#CC[C@H]1C(=O)N[C@@H]([C@@H](C)CC)C(=O)N(C)CC(=O)N(C)[C@H]2C/C=C\CCN(C2=O)[C@@H](Cc2ccc(C(F)(F)F)cc2)C(=O)N(C)CC(=O)N[C@@H](CCc2cc(F)c(C(F)(F)F)c(F)c2)C(=O)N2C[C@H](OCC)C[C@H]2C(=O)NC2(CC(F)(F)C2)C(=O)N(C)[C@@H](C2CCCC2)C(=O)N(C)[C@H](C(=O)N(C)CCC)CC(=O)N1C [PP1737]	A (a compound having 10 or more and less than 20 is denoted as A)	A (a compound having 10 or more and less than 20 is denoted as A)
0.14 nM	5.5 nM	CCCN(C)C(=O)[C@@H]1CC(=O)N(C)[C@@H](COCC)C(=O)N[C@@H]([C@@H](C)CC)C(=O)N(C)CC(=O)N(C)[C@H]2C/C=C\CCN(C2=O)[C@@H](Cc2ccc(C(F)(F)F)cc2)C(=O)N(C)CC(=O)N[C@@H](CCc2cc(F)c(C(F)(F)F)c(F)c2)C(=O)N2C[C@H](OCC)C[C@H]2C(=O)NC2(CC(C)(C)C2)C(=O)N(C)[C@@H](C2CCCC2)C(=O)N1C [PP2031]	B (a compound having 3 or more and less than 10 is denoted as B)	B (a compound having 3 or more and less than 10 is denoted as B)
0.3 nM	10 nM	CCCN(C)C(=O)[C@@H]1CC(=O)N(C)[C@@H](CC(F)F)C(=O)N[C@@H]([C@@H](C)CC)C(=O)N(C)CC(=O)N(C)[C@H]2C/C=C\CCN(C2=O)[C@@H](Cc2ccc(C(F)(F)F)cc2)C(=O)N(C)CC(=O)N[C@@H](CCc2cc(F)c(C(F)(F)F)c(F)c2)C(=O)N2CCC[C@H]2C(=O)NC2(CC(C)(C)C2)C(=O)N(C)[C@@H](C2CCCC2)C(=O)N1C [PP1721]	A (a compound having 10 or more and less than 20 is denoted as A)	A (a compound having 10 or more and less than 20 is denoted as A)
0.085 nM	5.8 nM	CCO[C@@H]1C[C@H]2C(=O)NC3(CC(C)(C)C3)C(=O)N(C)[C@@H](C3CCCC3)C(=O)N(C)[C@H](C(=O)N(C)C)CC(=O)N(C)[C@@H](CC3CCC3)C(=O)N[C@@H]([C@@H](C)CC)C(=O)N(C)CC(=O)N(C)[C@H]3C/C=C\CCN(C3=O)[C@@H](Cc3ccc(C(F)(F)F)cc3)C(=O)N(C)CC(=O)N[C@@H](CCc3ccc(C(F)(F)F)c(Cl)c3)C(=O)N2C1 [PP1752]	A (a compound having 10 or more and less than 20 is denoted as A)	A (a compound having 10 or more and less than 20 is denoted as A)
0.12 nM	4.5 nM	CCCN(C)C(=O)[C@@H]1CC(=O)N(C)[C@@H](CC(F)F)C(=O)N[C@@H]([C@@H](C)CC)C(=O)N(C)CC(=O)N(C)[C@H]2C/C=C\CCN(C2=O)[C@@H](Cc2ccc(C(F)(F)F)cc2)C(=O)N(C)CC(=O)N[C@@H](CCc2cc(F)c(C(F)(F)F)c(F)c2)C(=O)N2C[C@H](OCC)C[C@H]2C(=O)NC2(CC(C)(C)C2)C(=O)N(C)[C@@H](C2CCCC2)C(=O)N1C [PP2030]	A (a compound having 10 or more and less than 20 is denoted as A)	A (a compound having 10 or more and less than 20 is denoted as A)
0.055 nM	7.8 nM	CCCO[C@H](C)[C@@H]1NC(=O)[C@H](CC(C)C)N(C)C(=O)C[C@@H](C(=O)N(C)C)N(C)C(=O)[C@H](C2CCCC2)N(C)C(=O)C2(CC(C)(C)C2)NC(=O)[C@@H]2C[C@@H](OCC)CN2C(=O)[C@H](CCc2cc(F)c(C(F)(F)F)c(F)c2)NC(=O)CN(C)C(=O)[C@H](Cc2ccc(C(F)(F)F)cc2)N2CC/C=C\C[C@@H](C2=O)N(C)C(=O)CN(C)C1=O [PP1921]	A (a compound having 10 or more and less than 20 is denoted as A)	A (a compound having 10 or more and less than 20 is denoted as A)
0.071 nM	3 nM	CCO[C@@H]1C[C@H]2C(=O)NC3(CC(C)(C)C3)C(=O)N(C)[C@@H](C3CCCC3)C(=O)N(C)[C@H](C(=O)N(C)C)CC(=O)N(C)[C@@H](CC(F)(F)F)C(=O)N[C@@H]([C@@H](C)CC)C(=O)N(C)CC(=O)N(C)[C@H]3C/C=C\CCN(C3=O)[C@@H](Cc3ccc(C(F)(F)F)cc3)C(=O)N(C)CC(=O)N[C@@H](CCc3ccc(C(F)(F)F)c(OC)c3)C(=O)N2C1 [PP1675]	B (a compound having 3 or more and less than 10 is denoted as B)	A (a compound having 10 or more and less than 20 is denoted as A)
1.9 nM	32.5 nM	CCCN1C(=O)CN(C)C(=O)CN(C)C(=O)[C@H]([C@@H](C)CC)NC(=O)[C@H](CC(C)C)N(C)C(=O)C[C@@H](C(=O)N2CCOCC2)N(C)C(=O)[C@H](C2CCCC2)N(C)C(=O)C2(CCC2)NC(=O)[C@@H]2CCCN2C(=O)[C@H](CCc2ccc(C(F)(F)F)c(Cl)c2)NC(=O)CN(CC)C(=O)[C@@H]1Cc1ccc(C(F)(F)F)cc1 [PP1950] ([NMeL]I[Sar][Sar][NPrPhe(4-CF3)][NEtG][hPhe(3-Cl-4-CF3)]P[Ac4c][NMeGly(cPent)][NMeD]-Morpholide; lactam N-11)	C (A compound having a KD ratio of 0.1 or more and less than 3 is denoted as C)	B (a compound having 3 or more and less than 10 is denoted as B)
